{"source": "patent US20090286744A1", "about": "“Treatment of asthma” (IMMUNEREGEN BIOSCINECES INC., priority 2005, published 2009)", "system": "PARP-1", "test": "Immunoblotting for PARP-1 in alveolar macrophages pre-treated with JP-8 and substance P", "assay_type": "cell-based", "details": "PAM pre-treated with 8 ug/ml of JP-8 and substance P; 24 hours; immunoblotting (FIG. 1)", "protocol": "Alveolar macrophages (PAM) were pre-treated with 8 ug/ml of JP-8 and substance P, or left untreated. After 24 hours, protein was extracted from the PAM and analyzed by immunoblotting for PARP-1, procaspase-3, p53, and GAPDH.", "note": "Ends that are not written are not given here.", "data": [{"substance": "Substance P (RPKPQQFFGLM-NH2; listed as Homo sapiens)", "values": [{"measurement": "PARP-1 expression in alveolar macrophages", "value": "causes degradation of PARP-1 expression in alveolar macrophages in a dose-dependent manner"}]}]}
